“And” between values parts separate entries of the source, which are not always exact repeats. Identical values can stand only once.
Key:
[1] = tested on: DSS induced ulcerative colitis; conditions: cited from earlier work
[2] = tested on: serum protein citrullination; experiment: Rh-PG analysis of murine ulcerative colitis serum samples; type: in vivo, mouse; conditions: serum of DSS mice treated with Cl-amidine
Protocol: Rh-PG Analysis of Murine Ulcerative Colitis Serum Samples: Serum samples Cl-amidine efficacy in a mouse model of ulcerative colitis were obtained and analyzed by the Rh-PG method. Briefly, the protein concentration of serum samples was first obtained using a standard Lowry assay. A sample (2 mg/mL; 30 μL) of each serum sample (i.e., 14 total; 7 DSS; 7 DSS+Cl-amidine) was prepared in 50 mM HEPES and treated with 20% TCA and 0.1 mM Rh-PG for 30 min at 37° C. Samples were then quenched with citrulline, cooled, centrifuged, washed, and dried. After resuspending in 50 mM HEPES, samples were separated by SDS-PAGE (12%; 170 V; 50 min) and imaged on a Typhoon Imager (Ex. 532 nm; Em. 580 nm). Images were analyzed using ImageQuant 5.2 and correlation coefficients were determined using Microsoft Excel. These experiments were run in duplicate on different days. Subsequent statistical analysis was done using STATISTICA, utilizing two-tailed, independent student's t-tests to determine significance (i.e., P-value) between diseased and Cl-amidine treated samples. Correlation coefficients were calculated in Microsoft Excel, utilizing a table of critical values of Pearson's r with a degree of freedom value of 12 (n−2) to determine the significance (i.e., P-value) of the correlation between the fluorescence of a particular protein and a disease score.

[3] = target: T1, autodeiminated PAD4 (Homo sapiens, UniProt Q9UM07); experiment: Biotin-PG limit of detection, streptavidin-HRP blot; conditions: Example 1; 20% TCA, 0.1 mM Biotin-PG, 37° C., 3 h
T1 sequence (Q9UM07 whole entry): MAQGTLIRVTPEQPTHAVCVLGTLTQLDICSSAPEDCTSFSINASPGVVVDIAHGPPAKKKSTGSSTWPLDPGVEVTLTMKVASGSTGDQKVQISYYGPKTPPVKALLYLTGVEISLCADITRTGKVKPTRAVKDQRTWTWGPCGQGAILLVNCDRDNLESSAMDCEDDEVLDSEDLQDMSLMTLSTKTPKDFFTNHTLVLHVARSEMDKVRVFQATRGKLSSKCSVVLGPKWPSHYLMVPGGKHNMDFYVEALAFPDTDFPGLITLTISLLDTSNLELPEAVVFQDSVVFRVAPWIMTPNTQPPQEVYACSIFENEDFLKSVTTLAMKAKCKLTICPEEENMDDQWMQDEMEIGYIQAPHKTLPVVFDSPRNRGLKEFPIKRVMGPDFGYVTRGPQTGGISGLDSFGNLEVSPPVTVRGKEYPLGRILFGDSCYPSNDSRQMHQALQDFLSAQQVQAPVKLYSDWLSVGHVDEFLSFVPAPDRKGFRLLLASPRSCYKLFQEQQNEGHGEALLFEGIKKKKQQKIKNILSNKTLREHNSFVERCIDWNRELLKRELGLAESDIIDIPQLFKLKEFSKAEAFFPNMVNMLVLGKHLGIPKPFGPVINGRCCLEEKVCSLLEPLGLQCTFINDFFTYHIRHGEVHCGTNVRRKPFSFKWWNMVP
Protocol: Biotin-PG Pulldown and Labeling—It was next set out to determine the utility of the biotin-tagged PG probe, Biotin-PG (FIG. 2), as a tool for labeling, isolating, and enriching citrullinated proteins. As with the Rh-PG probe, the LOD of this probe was first determined with respect to autodeiminated PAD4. For these studies, autodeiminated PAD4, prepared as described above, was diluted into 50 mM HEPES pH 8.0 to final concentrations of 1.6 μM, 0.16 μM, 16 nM, 1.6 nM, and 0.16 nM. These samples were then incubated at 37° C. for 3 h with 20% TCA and 0.1 mM Biotin-PG. Solutions were quenched, cooled on ice for 30 min, and centrifuged at 14,000 rpm for 15 min at 4° C. The supernatant was removed and samples were washed with cold acetone and dried at 100° C. for 5 min. Proteins were resuspended in 25 μL of 50 mM HEPES and boiled with 6×SDS loading dye and various amounts of protein (i.e., 1,000, 100, 10, 1, and 0.1 ng) loaded onto a 12% SDS-PAGE gel. Gel electrophoresis was performed at 200 V for 50 min and proteins were subsequently electrotransferred to nitrocellulose (tris-glycine buffer; 80 V; 70 min) and the membrane blocked with 5% BSA in PBS for 1 h at rt. After washing 2× with PBS (10 min), the blot was treated with streptavidin-HRP (1:20,000) in 5% BSA in PBS for 1 h at rt. […]

[4] = target: T1, autodeiminated PAD4; experiment: Rh-PG limit of detection, SDS-PAGE and fluorescent imaging; conditions: Example 1; 20% TCA, 0.1 mM Rh-PG, 37° C., 3 h; LOD defined as three times the noise
Protocol: The sensitivity of the probe was analyzed next (FIGS. 5A, 5B). Autodeiminated PAD4, prepared as described above, was diluted into 50 mM HEPES pH 8.0 to final concentrations of 1.6 μM, 0.16 μM, 16 nM, 1.6 nM, and 0.16 nM. To one set of samples was added 0.1 mM Rh-PG, and to a second set, 20% TCA and 0.1 mM Rh-PG. The samples were then incubated at 37° C. for 3 h. To TCA precipitate autodeiminated PAD4, the acidic solutions were cooled on ice for 30 min and then centrifuged at 14,000 rpm for 15 min at 4° C. The supernatant was removed and samples were washed with cold acetone and dried at 100° C. for 5 min. Proteins were resuspended in 25 μL of 50 mM HEPES. Both basic and acidic samples were then boiled with 6×SDS loading dye and various amounts of protein (i.e., 1000, 100, 10, 1, and 0.1 ng) loaded onto a 12% SDS-PAGE gel. Gel electrophoresis was performed at 170 V for 60 min and the gels analyzed on a Typhoon Imager (Ex. 532 nm; Em. 580 nm) (FIGS. 5A, 5B). […]
Rh-PG Limit of Detection: Citrullinated H3 and autodeiminated PAD4, prepared as described above, were diluted into 50 mM HEPES pH 7.6 to final concentrations of (2.2 μM, 0.22 μM, 22 nM, 2.2 nM, and 0.22 nM H3) and (0.16 μM, 16 nM, 1.6 nM, 0.16 nM, and 0.016 nM PAD4). […] Gel electrophoresis was performed at 170 V for 50 min and the gels analyzed on a Typhoon Imager (Ex. 532 nm; Em. 580 nm).

[5] = target: PAD2 (Homo sapiens, UniProt Q9Y2J8); experiment: Kinetic characterization of ApoA1 as a PAD substrate using Rh-PG; type: biochemical; conditions: recombinant huApoA1, Rh-PG readout
PAD2, sequence (Q9Y2J8 whole entry, species assumed): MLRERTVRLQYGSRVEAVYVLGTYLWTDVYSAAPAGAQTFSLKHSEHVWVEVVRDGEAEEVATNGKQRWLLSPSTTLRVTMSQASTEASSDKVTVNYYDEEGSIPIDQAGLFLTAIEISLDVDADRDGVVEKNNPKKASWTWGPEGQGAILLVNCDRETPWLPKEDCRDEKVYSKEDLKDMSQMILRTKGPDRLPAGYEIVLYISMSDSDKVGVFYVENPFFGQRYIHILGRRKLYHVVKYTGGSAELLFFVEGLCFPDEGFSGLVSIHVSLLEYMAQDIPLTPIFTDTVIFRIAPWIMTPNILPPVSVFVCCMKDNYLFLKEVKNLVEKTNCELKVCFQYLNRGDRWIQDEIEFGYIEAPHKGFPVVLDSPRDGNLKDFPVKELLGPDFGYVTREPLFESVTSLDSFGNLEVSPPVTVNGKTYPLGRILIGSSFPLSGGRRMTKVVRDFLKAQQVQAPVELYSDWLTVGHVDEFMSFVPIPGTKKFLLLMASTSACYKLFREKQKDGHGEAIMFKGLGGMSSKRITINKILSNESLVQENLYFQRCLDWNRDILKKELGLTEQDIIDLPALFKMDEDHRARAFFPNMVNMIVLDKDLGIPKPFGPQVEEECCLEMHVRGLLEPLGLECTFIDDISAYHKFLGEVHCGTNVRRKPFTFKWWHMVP
Protocol: (§1) To verify that ApoA1 is the modified 25 kDa protein in the UC samples, anti-ApoA1 Western blotting of Biotin-PG pulldown samples was performed (FIG. 24A). […] To test human ApoA1 as a PAD substrate, recombinant huApoA1 was first treated ±PADs 1-4 and then analyzed with the Rh-PG probe (FIG. 24B). […] PADs 2, 3, and 4 also modified ApoA1, albeit to a lesser extent. To further evaluate citrullination of ApoA1, the steady state kinetic parameters were determined using Rh-PG.

[6] = target: T2, PAD3 (Homo sapiens, UniProt Q9ULW8); experiment: as above; type: biochemical; conditions: recombinant huApoA1, Rh-PG readout
T2 sequence (Q9ULW8 1-664): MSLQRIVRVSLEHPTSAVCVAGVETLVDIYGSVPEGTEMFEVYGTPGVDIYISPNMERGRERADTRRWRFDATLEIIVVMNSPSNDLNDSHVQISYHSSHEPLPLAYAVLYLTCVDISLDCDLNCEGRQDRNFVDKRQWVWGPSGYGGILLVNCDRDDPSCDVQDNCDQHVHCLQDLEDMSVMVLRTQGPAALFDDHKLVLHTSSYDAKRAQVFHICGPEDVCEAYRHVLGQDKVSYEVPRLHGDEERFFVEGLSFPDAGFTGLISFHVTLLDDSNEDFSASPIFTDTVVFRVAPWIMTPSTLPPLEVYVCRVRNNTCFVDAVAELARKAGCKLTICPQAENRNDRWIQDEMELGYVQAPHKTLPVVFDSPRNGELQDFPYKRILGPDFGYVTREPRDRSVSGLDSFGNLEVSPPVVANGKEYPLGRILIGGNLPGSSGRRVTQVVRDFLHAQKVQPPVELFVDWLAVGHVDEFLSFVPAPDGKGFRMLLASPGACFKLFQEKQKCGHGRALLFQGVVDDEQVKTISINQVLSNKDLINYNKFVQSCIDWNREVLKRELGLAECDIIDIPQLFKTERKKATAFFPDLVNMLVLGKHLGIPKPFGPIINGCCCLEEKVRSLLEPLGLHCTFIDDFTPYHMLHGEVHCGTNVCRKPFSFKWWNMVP
Protocol: as §1

[7] = target: PAD4 (Homo sapiens, UniProt Q9UM07); experiment: Steady-state kinetic assay of protein citrullination using Rh-PG; type: biochemical; conditions: recombinant huApoA1, Rh-PG readout
PAD4, sequence (Q9UM07 whole entry, species assumed): as the sequence (Q9UM07 whole entry) above

[8] = group average, Group 8 WT, 2% DSS + Cl-Amidine @ 75 mg/kg
[9] = individual mice, Group 8 WT, 2% DSS + Cl-Amidine @ 75 mg/kg

## NC(=O)[C@H](CCCN=C(N)CCl)NC(=O)c1ccccc1 [Cl-amidine]
[1]; DSS mouse model of ulcerative colitis, previous study (Chumanevich 2011)
  disease severity: reduces disease severity
[1]; [8]
  Colon Length, Average: 8.1 cm
  Inflam. Score, Average: 14.6
  Lym, Average: 8.2 m/mm^3
  WBC, Average: 13.7 m/mm^3
  Weight (end), Average: 23.3 g
  Weight Diff., Average: 0.7 g
[1]; [9]
  Colon Length: 7.6 cm (2×) and 8.1 cm and 8.2 cm and 8.6 cm and 8 cm and 8.4 cm
  Inflam. Score: 14 (2×) and 24 and 12 (2×) and 10 and 16
  Lym: 5.68 m/mm^3 and 3.87 m/mm^3 and 11.35 m/mm^3 and 9.4 m/mm^3 and 6.87 m/mm^3 and 9.35 m/mm^3 and 10.83 m/mm^3
  WBC: 9.75 m/mm^3 and 9.08 m/mm^3 and 18.14 m/mm^3 and 15.12 m/mm^3 and 11.46 m/mm^3 and 15.91 m/mm^3 and 16.41 m/mm^3
  Weight Diff.: 0.8 g (2×) and 0.15 g and 1.3 g and 0.5 g and 0.7 g and 0.3 g
[1]; individual mice, Group 8 WT, 2% DSS + Cl-Amidine @ 75 mg/kg, in g
  Weight (end): 23.4 and 22.05 and 22.7 and 24.1 and 25 and 22.5 and 23.6
[2]
  effect on global citrullination (whole lane): significantly decreases global citrullination

## O=CC(=O)c1cccc(NC(=O)CCn2cc(CCCC(=O)NCCNC(=O)CCCC[C@@H]3SC[C@@H]4NC(=O)N[C@@H]43)nn2)c1 [Biotin-PG]
[3]
  limit of detection of Biotin-PG probe, autodeiminated PAD4: 100 ng

## CC(C(=O)Nc1cccc(C(=O)C=O)c1)n1cc(CNC(=O)c2ccc3c(c2)C2(OC3=O)c3ccc(N(C)C)cc3Oc3cc(N(C)C)ccc32)nn1 (stereo not shown) [Rh-PG, N-(3-Glyoxyl)phenylamino)propionyl)-1H-1,2,3-triazol-4-yl)methyl-5(6)-carboxamidotetramethyl rhodamine hydrate]
[4]
  limit of detection (LOD) of Rh-PG probe labeling of autodeiminated PAD4: 1 ng

## ApoA1: apolipoprotein-A1, a key component of High Density Lipoprotein; recombinant huApoA1 tested as PAD substrate
[5]
  substrate quality for PAD2: modest substrate
[6]
  substrate quality for PAD3: modest substrate
[7]
  substrate quality for PAD4: modest substrate
